Two compounds from publication PMC7839254 (FASEB journal : official publication of the Federation of …, 2021) can be followed below.

Positions count from the first letter of the chain named.

The term Kd denotes the constant that tells how readily two partners part at equilibrium.

What all share (experiment): isothermal titration calorimetry
What all share (format): binding
A general note: ITC needs no label: the signal is the heat of the interaction.

The target in test [1] is T1, human DIPP1 (DIPP1 1-148) (Homo sapiens, UniProt O95989, K18A).
T1 sequence (O95989 1-148 K18A): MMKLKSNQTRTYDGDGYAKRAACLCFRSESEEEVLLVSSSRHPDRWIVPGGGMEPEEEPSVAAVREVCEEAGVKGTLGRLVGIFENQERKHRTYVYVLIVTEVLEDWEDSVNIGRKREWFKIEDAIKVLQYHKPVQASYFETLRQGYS

Test [2] addresses T2, human DIPP1 (DIPP1 1-148) (Homo sapiens, UniProt O95989, R45A).
T2 sequence (O95989 1-148 R45A): T1 sequence (O95989 1-148 K18A) with A18K, R45A

The target in test [3] is T3, human DIPP1 (DIPP1 1-148) (Homo sapiens, UniProt O95989).
T3 sequence (O95989 1-148): T1 sequence (O95989 1-148 K18A) with A18K

The target in test [4] is T4, human DIPP1 (DIPP1 1-148) (Homo sapiens, UniProt O95989, H42A).
T4 sequence (O95989 1-148 H42A): T1 sequence (O95989 1-148 K18A) with A18K, H42A

Test [5] concerns the target T5, human DIPP1 (DIPP1 1-148) (Homo sapiens, UniProt O95989, R41A).
T5 sequence (O95989 1-148 R41A): T1 sequence (O95989 1-148 K18A) with A18K, R41A

In test [6] the target is T6, human DIPP1 (DIPP1 1-148) (Homo sapiens, UniProt O95989, H42A/R45A).
T6 sequence (O95989 1-148 H42A/R45A): T1 sequence (O95989 1-148 K18A) with A18K, H42A, R45A

Turning to `O=P(O)(O)O[C@@H]1[C@@H](OP(=O)(O)O)[C@H](OP(=O)(O)OP(=O)(O)O)[C@@H](OP(=O)(O)O)[C@H](OP(=O)(O)OP(=O)(O)O)[C@@H]1OP(=O)(O)O` [1,5-InsP8, 1,5-bis-diphosphoinositol 2,3,4,6-tetrakisphosphate], the Kd is 4990 ± 620 nM in test [1]; 360 ± 50 nM in test [2]; 158 ± 9 nM in test [3]; 510 ± 100 nM in test [4]; 460 ± 50 nM in test [5]; 1060 ± 90 nM in test [6].
As for `O=P(O)(O)O[C@@H]1[C@@H](OP(=O)(O)OP(=O)(O)O)[C@H](OP(=O)(O)O)[C@@H](OP(=O)(O)O)[C@@H](O)[C@H]1OP(=O)(O)O` [5-PP-InsP4, 5-diphosphoinositol 1,3,4,6-tetrakisphosphate], the Kd in test [3] came out at 251 ± 31 nM.
